Laboratory results from patent publication US11890287B2, “Therapeutic compounds and compositions for treating social disorders and substance use disorders” (Kinoxis Therapeutics Pty Ltd, priority 2015, dated 2024).
“Also recorded” adds a separate entry of the source.

Assays:
[1] = test system: male Albino Wistar rats; experiment: Social preference test (caged conspecific vs toy rat); assay type: in vivo; settings: 5 mg/kg IP
[2] = test system: Fos-positive cells in brain regions of interest; experiment: Fos immunohistochemistry in rat brain; assay type: in vivo, male Wistar rats
Experimental: Fos immunohistochemistry was used to identify the neural “signature” of SOC-1 (5 mg/kg) in rat brain relative to injections of peripheral oxytocin (OT) (1 mg/kg). SOC-1 produces a similar overall pattern of neural activation and behavioural effects as OT. However, the effects are much larger and additional areas are activated by SOC-1 that are implicated in the regulation of social behaviour (e.g. lateral septum, medial preoptic area and supraoptic nucleus). SOC-1 produces powerful activation of OT-containing neurons in both the supraoptic (FIG. 6: (A)=vehicle; (B)=oxytocin; and (C)=SOC-1) and paraventricular nucleus of the hypothalamus.

[3] = biological target: T1, OTR (Homo sapiens, UniProt P30559); experiment: IP1 signalling on OTR HEK cells; assay type: cell-based
T1 construct: expressed in transfected cells; host or cells: HEK cells

[4] = test system: rats; experiment: In vivo toxicity/adverse events; set-up: species or system rat
Experimental: However, the rats were not ataxic or comatose, they were simply in a relaxed quiescent state. […] Effects on body temperature and other behaviours are not blocked by pre-treatment with the vasopressin V1A receptor antagonist SR49059 (10 mg/kg). […] The data in these two studies was gathered with DataSciences International biotelemetry system.

[5] = test system: rats; experiment: Conditioned place preference; settings: rat, in vivo
[6] = biological target: T2, 5-HT1A (Homo sapiens, UniProt P08908); experiment: PDSP orthosteric binding screen
T2 construct: Psychoactive Drug Screening Program (PDSP)
Source text: (§1) Comprehensive screening of affinity for the orthosteric binding sites for numerous receptors from the Psychoactive Drug Screening Program (PDSP) have failed as yet to identify a target, despite the powerful OT-like behavioural effects of the compound evident in vivo and the clear activation of brain OT systems evident from our Fos data.

[7] = biological target: T3, 5-HT1B (Homo sapiens, UniProt P28222); experiment: PDSP orthosteric binding screen
T3 construct: Psychoactive Drug Screening Program (PDSP)
Source text: as §1

[8] = biological target: T4, 5-HT1D (Homo sapiens, UniProt P28221); experiment: PDSP orthosteric binding screen
T4 construct: Psychoactive Drug Screening Program (PDSP)
Source text: as §1

[9] = biological target: T5, 5-HT2A (Homo sapiens, UniProt P28223); experiment: PDSP orthosteric binding screen
T5 construct: Psychoactive Drug Screening Program (PDSP)
Source text: as §1

[10] = biological target: T6, 5-HT2B (Homo sapiens, UniProt P41595); experiment: PDSP orthosteric binding screen
T6 construct: Psychoactive Drug Screening Program (PDSP)
Source text: as §1

[11] = biological target: T7, 5-HT3 (Homo sapiens, UniProt P46098); experiment: PDSP orthosteric binding screen
T7 construct: Psychoactive Drug Screening Program (PDSP)
Source text: as §1

[12] = biological target: T8, 5-HT7 (Homo sapiens, UniProt P34969); experiment: PDSP orthosteric binding screen
T8 construct: Psychoactive Drug Screening Program (PDSP)
Source text: as §1

[13] = biological target: T9, 5-ht5a (Homo sapiens, UniProt P47898); experiment: PDSP orthosteric binding screen
T9 construct: Psychoactive Drug Screening Program (PDSP)
T9 sequence (P47898 whole entry, species assumed): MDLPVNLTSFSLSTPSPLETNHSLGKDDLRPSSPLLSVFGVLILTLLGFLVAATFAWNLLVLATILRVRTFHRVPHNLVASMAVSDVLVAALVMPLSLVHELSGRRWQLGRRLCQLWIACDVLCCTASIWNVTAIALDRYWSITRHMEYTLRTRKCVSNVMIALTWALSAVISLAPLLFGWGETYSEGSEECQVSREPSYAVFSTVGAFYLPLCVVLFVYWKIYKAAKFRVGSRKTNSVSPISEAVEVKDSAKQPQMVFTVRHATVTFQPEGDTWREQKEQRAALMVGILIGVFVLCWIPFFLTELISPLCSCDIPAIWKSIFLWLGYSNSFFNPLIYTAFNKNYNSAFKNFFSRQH
Source text: as §1

[14] = biological target: T10, Alpha1D (Homo sapiens, UniProt P25100); experiment: PDSP orthosteric binding screen
T10 construct: Psychoactive Drug Screening Program (PDSP)
Source text: as §1

[15] = biological target: T11, Alpha2A (Homo sapiens, UniProt P08913); experiment: PDSP orthosteric binding screen
T11 construct: Psychoactive Drug Screening Program (PDSP)
T11 sequence (P08913 whole entry): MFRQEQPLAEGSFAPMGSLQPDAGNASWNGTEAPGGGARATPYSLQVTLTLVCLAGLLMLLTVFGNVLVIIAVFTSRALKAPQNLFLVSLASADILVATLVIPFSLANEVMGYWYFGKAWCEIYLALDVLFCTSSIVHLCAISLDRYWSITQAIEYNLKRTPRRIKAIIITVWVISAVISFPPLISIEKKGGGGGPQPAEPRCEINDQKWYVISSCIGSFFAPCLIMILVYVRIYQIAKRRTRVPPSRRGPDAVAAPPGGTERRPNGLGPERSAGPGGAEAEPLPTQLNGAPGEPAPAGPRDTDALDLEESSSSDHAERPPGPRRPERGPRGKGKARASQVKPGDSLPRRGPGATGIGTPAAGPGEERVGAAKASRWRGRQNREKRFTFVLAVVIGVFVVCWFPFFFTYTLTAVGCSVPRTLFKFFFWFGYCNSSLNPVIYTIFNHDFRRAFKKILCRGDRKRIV
Source text: as §1

[16] = biological target: T12, Alpha2B (Homo sapiens, UniProt P18089); experiment: PDSP orthosteric binding screen
T12 construct: Psychoactive Drug Screening Program (PDSP)
Source text: as §1

[17] = biological target: T13, Alpha2C (Homo sapiens, UniProt P18825); experiment: PDSP orthosteric binding screen
T13 construct: Psychoactive Drug Screening Program (PDSP)
T13 sequence (P18825 whole entry): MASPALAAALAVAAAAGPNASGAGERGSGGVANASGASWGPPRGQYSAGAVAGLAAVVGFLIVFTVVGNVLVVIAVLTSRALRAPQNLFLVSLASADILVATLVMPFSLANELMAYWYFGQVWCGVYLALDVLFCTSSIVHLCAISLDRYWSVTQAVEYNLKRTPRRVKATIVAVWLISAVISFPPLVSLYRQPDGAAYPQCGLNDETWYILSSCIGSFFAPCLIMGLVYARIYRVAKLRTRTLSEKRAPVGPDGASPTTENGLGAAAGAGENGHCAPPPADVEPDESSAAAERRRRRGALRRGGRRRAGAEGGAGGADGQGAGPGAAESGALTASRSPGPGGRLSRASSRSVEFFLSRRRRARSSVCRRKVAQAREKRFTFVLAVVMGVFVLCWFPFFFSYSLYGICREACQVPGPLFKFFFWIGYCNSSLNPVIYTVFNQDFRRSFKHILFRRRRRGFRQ
Source text: as §1

[18] = biological target: T14, Beta3 (Homo sapiens, UniProt P13945); experiment: PDSP orthosteric binding screen
T14 construct: Psychoactive Drug Screening Program (PDSP)
Source text: as §1

[19] = biological target: T15, D1 (Homo sapiens, UniProt P21728); experiment: PDSP orthosteric binding screen
T15 construct: Psychoactive Drug Screening Program (PDSP)
Source text: as §1

[20] = biological target: T16, D3 (Homo sapiens, UniProt P35462); experiment: PDSP orthosteric binding screen
T16 construct: Psychoactive Drug Screening Program (PDSP)
Source text: as §1

[21] = biological target: T17, D4 (Homo sapiens, UniProt P21917); experiment: PDSP orthosteric binding screen
T17 construct: Psychoactive Drug Screening Program (PDSP)
Source text: as §1

[22] = biological target: T18, D5 (Homo sapiens, UniProt P21918); experiment: PDSP orthosteric binding screen
T18 construct: Psychoactive Drug Screening Program (PDSP)
T18 sequence (P21918 whole entry): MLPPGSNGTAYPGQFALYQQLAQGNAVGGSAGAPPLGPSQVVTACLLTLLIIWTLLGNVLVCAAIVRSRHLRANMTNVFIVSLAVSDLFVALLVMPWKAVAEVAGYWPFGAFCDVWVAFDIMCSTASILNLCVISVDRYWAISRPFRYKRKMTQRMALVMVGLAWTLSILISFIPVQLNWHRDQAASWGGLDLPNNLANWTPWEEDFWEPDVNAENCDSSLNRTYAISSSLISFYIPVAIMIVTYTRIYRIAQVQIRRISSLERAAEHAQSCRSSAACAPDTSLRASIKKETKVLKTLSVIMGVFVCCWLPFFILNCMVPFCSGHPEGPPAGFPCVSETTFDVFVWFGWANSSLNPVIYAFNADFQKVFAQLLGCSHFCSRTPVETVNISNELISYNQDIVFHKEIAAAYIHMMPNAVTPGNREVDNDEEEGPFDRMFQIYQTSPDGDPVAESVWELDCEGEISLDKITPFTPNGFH
Source text: as §1

[23] = biological target: T19, DOR (Homo sapiens, UniProt P41143); experiment: PDSP orthosteric binding screen
T19 construct: Psychoactive Drug Screening Program (PDSP)
Source text: as §1

[24] = test system: GABAA; experiment: PDSP orthosteric binding screen
Source text: as §1

[25] = biological target: T20, H1 (Homo sapiens, UniProt P35367); experiment: PDSP orthosteric binding screen
T20 construct: Psychoactive Drug Screening Program (PDSP)
T20 sequence (P35367 whole entry): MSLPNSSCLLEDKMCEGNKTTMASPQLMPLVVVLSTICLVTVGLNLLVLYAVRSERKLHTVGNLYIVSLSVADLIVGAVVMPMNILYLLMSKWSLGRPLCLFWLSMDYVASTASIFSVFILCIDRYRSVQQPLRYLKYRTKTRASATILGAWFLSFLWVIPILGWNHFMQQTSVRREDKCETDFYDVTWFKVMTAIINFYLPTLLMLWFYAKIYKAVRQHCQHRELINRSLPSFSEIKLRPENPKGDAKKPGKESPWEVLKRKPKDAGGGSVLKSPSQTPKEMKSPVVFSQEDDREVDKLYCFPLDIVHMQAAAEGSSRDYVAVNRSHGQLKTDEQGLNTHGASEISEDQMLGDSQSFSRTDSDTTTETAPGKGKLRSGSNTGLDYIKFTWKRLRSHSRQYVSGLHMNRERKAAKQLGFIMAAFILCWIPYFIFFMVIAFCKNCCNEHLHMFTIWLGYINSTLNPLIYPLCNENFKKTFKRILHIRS
Source text: as §1

[26] = biological target: T21, KOR (Homo sapiens, UniProt P41145); experiment: PDSP orthosteric binding screen
T21 construct: Psychoactive Drug Screening Program (PDSP)
T21 sequence (P41145 whole entry): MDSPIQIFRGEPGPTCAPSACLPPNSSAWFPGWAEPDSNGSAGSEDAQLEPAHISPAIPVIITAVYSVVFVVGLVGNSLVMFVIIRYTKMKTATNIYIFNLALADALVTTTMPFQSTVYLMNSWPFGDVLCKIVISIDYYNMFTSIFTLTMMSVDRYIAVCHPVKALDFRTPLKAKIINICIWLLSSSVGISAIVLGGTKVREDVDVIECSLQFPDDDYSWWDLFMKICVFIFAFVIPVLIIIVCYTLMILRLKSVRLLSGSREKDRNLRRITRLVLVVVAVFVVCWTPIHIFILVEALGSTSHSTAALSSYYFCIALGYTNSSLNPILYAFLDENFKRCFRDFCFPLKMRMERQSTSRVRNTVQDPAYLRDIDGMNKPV
Source text: as §1

[27] = biological target: T22, M2 (Homo sapiens, UniProt P08172); experiment: PDSP orthosteric binding screen
T22 construct: Psychoactive Drug Screening Program (PDSP)
Source text: as §1

[28] = biological target: T23, M3 (Homo sapiens, UniProt P20309); experiment: PDSP orthosteric binding screen
T23 construct: Psychoactive Drug Screening Program (PDSP)
T23 sequence (P20309 whole entry): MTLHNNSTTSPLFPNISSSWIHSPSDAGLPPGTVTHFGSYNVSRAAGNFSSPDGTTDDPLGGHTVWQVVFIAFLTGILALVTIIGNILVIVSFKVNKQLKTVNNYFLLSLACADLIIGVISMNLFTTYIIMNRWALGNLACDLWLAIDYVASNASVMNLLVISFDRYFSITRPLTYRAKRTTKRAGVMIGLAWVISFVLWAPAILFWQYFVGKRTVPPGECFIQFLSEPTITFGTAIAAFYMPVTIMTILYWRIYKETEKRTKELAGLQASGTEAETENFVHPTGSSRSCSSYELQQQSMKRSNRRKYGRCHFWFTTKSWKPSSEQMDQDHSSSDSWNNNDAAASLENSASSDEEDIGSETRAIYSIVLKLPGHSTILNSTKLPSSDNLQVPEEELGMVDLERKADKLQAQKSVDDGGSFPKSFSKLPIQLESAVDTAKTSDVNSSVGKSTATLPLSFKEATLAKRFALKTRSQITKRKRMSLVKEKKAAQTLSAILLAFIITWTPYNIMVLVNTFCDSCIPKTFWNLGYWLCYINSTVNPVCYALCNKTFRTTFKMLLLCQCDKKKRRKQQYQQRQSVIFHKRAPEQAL
Source text: as §1

[29] = biological target: T24, M4 (Homo sapiens, UniProt P08173); experiment: PDSP orthosteric binding screen
T24 construct: Psychoactive Drug Screening Program (PDSP)
T24 sequence (P08173 whole entry): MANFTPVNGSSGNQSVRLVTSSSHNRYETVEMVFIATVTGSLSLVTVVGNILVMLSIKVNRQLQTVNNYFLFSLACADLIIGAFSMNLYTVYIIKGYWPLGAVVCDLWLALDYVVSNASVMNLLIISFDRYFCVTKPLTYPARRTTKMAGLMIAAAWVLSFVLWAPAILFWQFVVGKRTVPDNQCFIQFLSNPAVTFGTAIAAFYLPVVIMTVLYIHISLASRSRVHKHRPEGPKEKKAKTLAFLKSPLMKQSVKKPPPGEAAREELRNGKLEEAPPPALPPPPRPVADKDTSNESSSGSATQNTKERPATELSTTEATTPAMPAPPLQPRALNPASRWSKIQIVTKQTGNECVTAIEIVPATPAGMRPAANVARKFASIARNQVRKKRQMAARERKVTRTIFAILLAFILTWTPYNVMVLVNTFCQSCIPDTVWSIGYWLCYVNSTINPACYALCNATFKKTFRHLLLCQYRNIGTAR
Source text: as §1

[30] = biological target: T25, M5 (Homo sapiens, UniProt P08912); experiment: PDSP orthosteric binding screen
T25 construct: Psychoactive Drug Screening Program (PDSP)
T25 sequence (P08912 whole entry): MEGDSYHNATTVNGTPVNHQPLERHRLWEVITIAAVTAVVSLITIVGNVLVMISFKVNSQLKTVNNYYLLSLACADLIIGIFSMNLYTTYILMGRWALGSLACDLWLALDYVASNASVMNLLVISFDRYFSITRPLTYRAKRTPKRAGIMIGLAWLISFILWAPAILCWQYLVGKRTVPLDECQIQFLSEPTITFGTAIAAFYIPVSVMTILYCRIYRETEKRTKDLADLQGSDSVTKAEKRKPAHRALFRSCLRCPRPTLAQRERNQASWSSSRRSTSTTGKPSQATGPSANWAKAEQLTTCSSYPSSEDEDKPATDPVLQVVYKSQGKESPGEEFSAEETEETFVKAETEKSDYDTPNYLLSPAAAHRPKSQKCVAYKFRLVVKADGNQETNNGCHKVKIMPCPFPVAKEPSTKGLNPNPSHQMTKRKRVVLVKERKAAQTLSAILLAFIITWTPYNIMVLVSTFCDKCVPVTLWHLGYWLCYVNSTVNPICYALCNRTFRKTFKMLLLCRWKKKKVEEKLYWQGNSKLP
Source text: as §1

[31] = biological target: T26, MOR (Homo sapiens, UniProt P35372); experiment: PDSP orthosteric binding screen
T26 construct: Psychoactive Drug Screening Program (PDSP)
Source text: as §1

[32] = biological target: T27, NET (Homo sapiens, UniProt P23975); experiment: PDSP orthosteric binding screen
T27 construct: Psychoactive Drug Screening Program (PDSP)
T27 sequence (P23975 whole entry): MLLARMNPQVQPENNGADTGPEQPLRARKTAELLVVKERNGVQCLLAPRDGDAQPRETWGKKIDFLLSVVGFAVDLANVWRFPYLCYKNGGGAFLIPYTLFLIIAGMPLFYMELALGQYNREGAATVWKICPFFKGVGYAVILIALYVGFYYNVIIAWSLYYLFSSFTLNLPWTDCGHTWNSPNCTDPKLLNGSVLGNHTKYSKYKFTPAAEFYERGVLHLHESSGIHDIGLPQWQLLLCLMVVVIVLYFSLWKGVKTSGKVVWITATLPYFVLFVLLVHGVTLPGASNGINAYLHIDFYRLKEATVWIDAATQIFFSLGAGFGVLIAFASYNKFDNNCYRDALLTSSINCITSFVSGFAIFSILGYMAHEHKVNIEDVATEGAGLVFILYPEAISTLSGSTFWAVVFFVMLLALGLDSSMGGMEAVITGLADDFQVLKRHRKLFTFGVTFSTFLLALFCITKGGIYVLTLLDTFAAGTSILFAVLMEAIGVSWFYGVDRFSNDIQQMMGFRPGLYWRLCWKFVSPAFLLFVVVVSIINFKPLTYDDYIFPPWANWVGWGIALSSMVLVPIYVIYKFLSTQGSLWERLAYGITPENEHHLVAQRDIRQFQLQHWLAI
Source text: as §1

[33] = biological target: T28, SERT (Homo sapiens, UniProt P31645); experiment: PDSP orthosteric binding screen
T28 construct: Psychoactive Drug Screening Program (PDSP)
Source text: as §1

[34] = test system: Sigma 1; experiment: PDSP orthosteric binding screen
Source text: as §1

[35] = test system: Sigma 2; experiment: PDSP orthosteric binding screen
Source text: as §1

Q: What does the source list for Cl.Cn1ncc2c1Nc1ccccc1NC2 [SOC-1]?
A: preference for the live rat over a toy rat [1]: enhanced rats natural preference for an unfamiliar live rat; also recorded: significantly elevated preference for the live rat; Fos expression in the oxytocin-positive cells in the supraoptic nucleus of the hypothalamus (SON) ([2]; 5 mg/kg): strongly activates Fos expression; Mean number of Fos-positive cells, BNST (dorsolateral division) ([2]; OT 1 mg/kg, SOC-1 5 mg/kg): 10.25; Mean number of Fos-positive cells, BNST (middle anterior part)) ([2]; OT 1 mg/kg, SOC-1 5 mg/kg): 7; Mean number of Fos-positive cells, Central nucleus of the amygdala ([2]; OT 1 mg/kg, SOC-1 5 mg/kg): 14.33; Mean number of Fos-positive cells, Lateral Parabrachial nucleus ([2]; OT 1 mg/kg, SOC-1 5 mg/kg): 12.91; Mean number of Fos-positive cells, Lateral septum (ventral) ([2]; OT 1 mg/kg, SOC-1 5 mg/kg): 34.17; Mean number of Fos-positive cells, Locus Ceruleus ([2]; OT 1 mg/kg, SOC-1 5 mg/kg): 8.08; Mean number of Fos-positive cells, Medial preoptic area ([2]; OT 1 mg/kg, SOC-1 5 mg/kg): 10.30; Mean number of Fos-positive cells, Median preoptic nucleus ([2]; OT 1 mg/kg, SOC-1 5 mg/kg): 7.08; Mean number of Fos-positive cells, Nucleus of Solitary Tract ([2]; OT 1 mg/kg, SOC-1 5 mg/kg): 17.58; Mean number of Fos-positive cells, PAG (ventrolateral) ([2]; OT 1 mg/kg, SOC-1 5 mg/kg): 8.58; Mean number of Fos-positive cells, Paraventircular nucleus ([2]; OT 1 mg/kg, SOC-1 5 mg/kg): 47.18; Mean number of Fos-positive cells, Supraoptic nucleus ([2]; OT 1 mg/kg, SOC-1 5 mg/kg): 15.42; Mean percent of OT cells that were Fos positive, Paraventircular nucleus ([2]; OT 1 mg/kg, SOC-1 5 mg/kg): 23.41%; Mean percent of OT cells that were Fos positive, Supraoptic nucleus ([2]; OT 1 mg/kg, SOC-1 5 mg/kg): 32.59%; agonist, antagonist or positive allosteric modulator activity at OTR [3]: not an agonist or antagonist at OTRs, nor a positive allosteric modulator of the OTR; locomotor activity ([4]; 10-20 mg/kg IP): some mild inhibition of locomotor activity; tolerability of repeated dosing (body weight, coat condition) ([4]; repeated dosing): without any apparent adverse effects; conditioned place preference [5]: does not produce a conditioned place preference; affinity for 5-HT1A [6]: no notable affinity; affinity for 5-HT1B [7]: no notable affinity; affinity for 5-HT1D [8]: no notable affinity; affinity for 5-HT2A [9]: no notable affinity; affinity for 5-HT2B [10]: no notable affinity; affinity for 5-HT3 [11]: no notable affinity; affinity for 5-HT7 [12]: no notable affinity; affinity for 5-ht5a [13]: no notable affinity; affinity for Alpha1D [14]: no notable affinity; affinity for Alpha2A [15]: no notable affinity; affinity for Alpha2B [16]: no notable affinity; affinity for Alpha2C [17]: no notable affinity; affinity for Beta3 [18]: no notable affinity; affinity for D1 [19]: no notable affinity; affinity for D3 [20]: no notable affinity; affinity for D4 [21]: no notable affinity; affinity for D5 [22]: no notable affinity; affinity for DOR [23]: no notable affinity; affinity for GABAA [24]: no notable affinity; affinity for H1 [25]: no notable affinity; affinity for KOR [26]: no notable affinity; affinity for M2 [27]: no notable affinity; affinity for M3 [28]: no notable affinity; affinity for M4 [29]: no notable affinity; affinity for M5 [30]: no notable affinity; affinity for MOR [31]: no notable affinity; affinity for NET [32]: no notable affinity; affinity for SERT [33]: no notable affinity; affinity for Sigma 1 [34]: no notable affinity; affinity for Sigma 2 [35]: no notable affinity
